Results as given in patent US12215140B2, “Method of stabilizing protein contained in specimen and solution for stabilizing protein contained in specimen” (EIKEN KAGAKU KABUSHIKI KAISHA, priority 2018, dated 2025).
One block for each molecule: values may come before it.

Molecular target: hemoglobin (Homo sapiens, UniProt P68871+P69905)
Assay: Stability of hemoglobin in samples preserved at 37° C. in preservation solution containing no haptoglobin, Hb measured by latex agglutination method (Examples 8, 9 and Table 10)
Settings: arylboronic acid 0.5 mmol/L
Method: Preservation solutions were prepared with the addition of 40 mmol/L HEPES (pH 6.8), 0.1% BSA, 0.1% NaN3, and 0 to 2.5 mmol/L phenylboronic acid. […] Samples obtained by adding hemoglobin-added fecal specimens to the preservation solutions so that the fecal concentration would be 0.5% were preserved at 37° C. for 0, 16, 38, and 62 hours. The fecal specimens were added with hemoglobin having an amount such that the hemoglobin concentration in the samples would be about 300 μg/L. Instead of the fecal specimens to which hemoglobin was added, samples containing no fecal specimens, in which hemoglobin was added to the preservation solutions so that the hemoglobin concentration in the samples would be 300 μg/L, were similarly preserved. The hemoglobin (Hb) concentrations (μg/L) in the preserved samples were measured by the latex agglutination method using the same measurement reagent and measurement device as in Example 1.
The concentration of phenylboronic acid in the preservation solutions of Example 8 was fixed to 0.5 mmol/L, preservation solutions to which sorbitol or sucrose was further added at 10 to 250 mmol/L or trehalose, glucose, fructose, or mannitol was further added at 50 to 100 mmol/L were prepared, and testing was conducted in the same manner as in Example 8. In addition, preservation solutions to which the phenylboronic acid was added but no sugar was added were prepared, preservation solutions to which the phenylboronic acid and sugar were not added were prepared for the comparative examples, and testing was conducted in the same manner.
For comparative examples, preservation solutions to which no arylboronic acid was added were prepared, and testing was conducted in the same manner.

[1] = Feces 1, 0 h at 37° C., no sugar
[2] = Feces 1, 16 h at 37° C., no sugar
[3] = Feces 1, 38 h at 37° C., no sugar
[4] = Feces 1, 62 h at 37° C., no sugar
[5] = Feces 2, 0 h at 37° C., no sugar
[6] = Feces 2, 16 h at 37° C., no sugar
[7] = Feces 2, 38 h at 37° C., no sugar
[8] = Feces 2, 62 h at 37° C., no sugar
[9] = Feces 3, 0 h at 37° C., no sugar
[10] = Feces 3, 16 h at 37° C., no sugar
[11] = Feces 3, 38 h at 37° C., no sugar
[12] = Feces 3, 62 h at 37° C., no sugar
[13] = No feces, 0 h at 37° C., no sugar
[14] = No feces, 16 h at 37° C., no sugar
[15] = No feces, 38 h at 37° C., no sugar
[16] = No feces, 62 h at 37° C., no sugar

Chain of hemoglobin (P69905 2-142): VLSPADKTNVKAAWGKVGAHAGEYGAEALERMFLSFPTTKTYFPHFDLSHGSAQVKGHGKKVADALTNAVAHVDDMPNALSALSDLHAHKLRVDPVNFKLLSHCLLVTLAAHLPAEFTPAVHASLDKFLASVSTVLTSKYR
Chain of hemoglobin (P68871 2-147): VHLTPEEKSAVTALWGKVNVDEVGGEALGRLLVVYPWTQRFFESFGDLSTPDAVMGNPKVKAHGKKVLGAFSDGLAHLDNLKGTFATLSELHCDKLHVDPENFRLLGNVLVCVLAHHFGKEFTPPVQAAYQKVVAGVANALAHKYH

Hb concentration [1]: 296 µg/L
Recovery ratio with respect to Hb after 0 days [1]: 100%
Hb concentration [2]: 163 µg/L
Recovery ratio with respect to Hb after 0 days [2]: 55%
Hb concentration [3]: 68 µg/L
Recovery ratio with respect to Hb after 0 days [3]: 23%
Hb concentration [4]: 20 µg/L
Recovery ratio with respect to Hb after 0 days [4]: 7%
Hb concentration (Feces 1, 0 h at 37° C.): 296 µg/L
Recovery ratio with respect to Hb after 0 days (Feces 1, 0 h at 37° C.): 100%
Hb concentration (Feces 1, 16 h at 37° C.): 163 µg/L
Recovery ratio with respect to Hb after 0 days (Feces 1, 16 h at 37° C.): 55%
Hb concentration (Feces 1, 38 h at 37° C.): 68 µg/L
Recovery ratio with respect to Hb after 0 days (Feces 1, 38 h at 37° C.): 23%
Hb concentration (Feces 1, 62 h at 37° C.): 20 µg/L
Recovery ratio with respect to Hb after 0 days (Feces 1, 62 h at 37° C.): 7%
Hb concentration [5]: 288 µg/L
Recovery ratio with respect to Hb after 0 days [5]: 100%
Hb concentration [6]: 90 µg/L
Recovery ratio with respect to Hb after 0 days [6]: 31%
Hb concentration [7]: 8 µg/L
Recovery ratio with respect to Hb after 0 days [7]: 3%
Hb concentration [8]: 0 µg/L
Recovery ratio with respect to Hb after 0 days [8]: 0%
Hb concentration (Feces 2, 0 h at 37° C.): 288 µg/L
Recovery ratio with respect to Hb after 0 days (Feces 2, 0 h at 37° C.): 100%
Hb concentration (Feces 2, 16 h at 37° C.): 90 µg/L
Recovery ratio with respect to Hb after 0 days (Feces 2, 16 h at 37° C.): 31%
Hb concentration (Feces 2, 38 h at 37° C.): 8 µg/L
Recovery ratio with respect to Hb after 0 days (Feces 2, 38 h at 37° C.): 3%
Hb concentration (Feces 2, 62 h at 37° C.): 0 µg/L
Recovery ratio with respect to Hb after 0 days (Feces 2, 62 h at 37° C.): 0%
Hb concentration [9]: 281 µg/L
Recovery ratio with respect to Hb after 0 days [9]: 100%
Hb concentration [10]: 95 µg/L
Recovery ratio with respect to Hb after 0 days [10]: 34%
Hb concentration [11]: 5 µg/L
Recovery ratio with respect to Hb after 0 days [11]: 2%
Hb concentration [12]: 0 µg/L
Recovery ratio with respect to Hb after 0 days [12]: 0%
Hb concentration (Feces 3, 0 h at 37° C.): 281 µg/L
Recovery ratio with respect to Hb after 0 days (Feces 3, 0 h at 37° C.): 100%
Hb concentration (Feces 3, 16 h at 37° C.): 95 µg/L
Recovery ratio with respect to Hb after 0 days (Feces 3, 16 h at 37° C.): 34%
Hb concentration (Feces 3, 38 h at 37° C.): 5 µg/L
Recovery ratio with respect to Hb after 0 days (Feces 3, 38 h at 37° C.): 2%
Hb concentration (Feces 3, 62 h at 37° C.): 0 µg/L
Recovery ratio with respect to Hb after 0 days (Feces 3, 62 h at 37° C.): 0%
Hb concentration [13]: 299 µg/L
Recovery ratio with respect to Hb after 0 days [13]: 100%
Hb concentration [14]: 279 µg/L
Recovery ratio with respect to Hb after 0 days [14]: 94%
Hb concentration [15]: 264 µg/L
Recovery ratio with respect to Hb after 0 days [15]: 88%
Hb concentration [16]: 266 µg/L
Recovery ratio with respect to Hb after 0 days [16]: 89%
Hb concentration (No feces, 0 h at 37° C.): 299 µg/L
Recovery ratio with respect to Hb after 0 days (No feces, 0 h at 37° C.): 100%
Hb concentration (No feces, 16 h at 37° C.): 279 µg/L
Recovery ratio with respect to Hb after 0 days (No feces, 16 h at 37° C.): 94%
Hb concentration (No feces, 38 h at 37° C.): 264 µg/L
Recovery ratio with respect to Hb after 0 days (No feces, 38 h at 37° C.): 88%
Hb concentration (No feces, 62 h at 37° C.): 266 µg/L
Recovery ratio with respect to Hb after 0 days (No feces, 62 h at 37° C.): 89%
SMILES: O=C(O)c1cccc(B(O)O)c1 [3C-PBA, 3-carboxyphenylboronic acid]

Hb concentration [1]: 298 µg/L
Recovery ratio with respect to Hb after 0 days [1]: 100%
Hb concentration [2]: 171 µg/L
Recovery ratio with respect to Hb after 0 days [2]: 57%
Hb concentration [3]: 79 µg/L
Recovery ratio with respect to Hb after 0 days [3]: 26%
Hb concentration [4]: 25 µg/L
Recovery ratio with respect to Hb after 0 days [4]: 8%
Hb concentration (Feces 1, 0 h at 37° C.): 298 µg/L
Recovery ratio with respect to Hb after 0 days (Feces 1, 0 h at 37° C.): 100%
Hb concentration (Feces 1, 16 h at 37° C.): 171 µg/L
Recovery ratio with respect to Hb after 0 days (Feces 1, 16 h at 37° C.): 57%
Hb concentration (Feces 1, 38 h at 37° C.): 79 µg/L
Recovery ratio with respect to Hb after 0 days (Feces 1, 38 h at 37° C.): 26%
Hb concentration (Feces 1, 62 h at 37° C.): 25 µg/L
Recovery ratio with respect to Hb after 0 days (Feces 1, 62 h at 37° C.): 8%
Hb concentration [5]: 295 µg/L
Recovery ratio with respect to Hb after 0 days [5]: 100%
Hb concentration [6]: 95 µg/L
Recovery ratio with respect to Hb after 0 days [6]: 32%
Hb concentration [7]: 11 µg/L
Recovery ratio with respect to Hb after 0 days [7]: 4%
Hb concentration [8]: 0 µg/L
Recovery ratio with respect to Hb after 0 days [8]: 0%
Hb concentration (Feces 2, 0 h at 37° C.): 295 µg/L
Recovery ratio with respect to Hb after 0 days (Feces 2, 0 h at 37° C.): 100%
Hb concentration (Feces 2, 16 h at 37° C.): 95 µg/L
Recovery ratio with respect to Hb after 0 days (Feces 2, 16 h at 37° C.): 32%
Hb concentration (Feces 2, 38 h at 37° C.): 11 µg/L
Recovery ratio with respect to Hb after 0 days (Feces 2, 38 h at 37° C.): 4%
Hb concentration (Feces 2, 62 h at 37° C.): 0 µg/L
Recovery ratio with respect to Hb after 0 days (Feces 2, 62 h at 37° C.): 0%
Hb concentration [9]: 295 µg/L
Recovery ratio with respect to Hb after 0 days [9]: 100%
Hb concentration [10]: 106 µg/L
Recovery ratio with respect to Hb after 0 days [10]: 36%
Hb concentration [11]: 9 µg/L
Recovery ratio with respect to Hb after 0 days [11]: 3%
Hb concentration [12]: 0 µg/L
Recovery ratio with respect to Hb after 0 days [12]: 0%
Hb concentration (Feces 3, 0 h at 37° C.): 295 µg/L
Recovery ratio with respect to Hb after 0 days (Feces 3, 0 h at 37° C.): 100%
Hb concentration (Feces 3, 16 h at 37° C.): 106 µg/L
Recovery ratio with respect to Hb after 0 days (Feces 3, 16 h at 37° C.): 36%
Hb concentration (Feces 3, 38 h at 37° C.): 9 µg/L
Recovery ratio with respect to Hb after 0 days (Feces 3, 38 h at 37° C.): 3%
Hb concentration (Feces 3, 62 h at 37° C.): 0 µg/L
Recovery ratio with respect to Hb after 0 days (Feces 3, 62 h at 37° C.): 0%
Hb concentration [13]: 306 µg/L
Recovery ratio with respect to Hb after 0 days [13]: 100%
Hb concentration [14]: 282 µg/L
Recovery ratio with respect to Hb after 0 days [14]: 92%
Hb concentration [15]: 263 µg/L
Recovery ratio with respect to Hb after 0 days [15]: 86%
Hb concentration [16]: 264 µg/L
Recovery ratio with respect to Hb after 0 days [16]: 86%
Hb concentration (No feces, 0 h at 37° C.): 306 µg/L
Recovery ratio with respect to Hb after 0 days (No feces, 0 h at 37° C.): 100%
Hb concentration (No feces, 16 h at 37° C.): 282 µg/L
Recovery ratio with respect to Hb after 0 days (No feces, 16 h at 37° C.): 92%
Hb concentration (No feces, 38 h at 37° C.): 263 µg/L
Recovery ratio with respect to Hb after 0 days (No feces, 38 h at 37° C.): 86%
Hb concentration (No feces, 62 h at 37° C.): 264 µg/L
Recovery ratio with respect to Hb after 0 days (No feces, 62 h at 37° C.): 86%
SMILES: OB(O)c1cccc(O)c1 [3H-PBA, 3-hydroxyphenylboronic acid]
